Test results from patent publication US20260209152A1, “Substituted Hydroxystilbene Compounds and Derivatives, Synthesis and Uses Thereof” (Kynan Duke IP, LLC, priority 2019, published 2026).
pIC50: −log10 of the molar value. Where two headings read alike, the source gives them in different places. Each block holds one compound with its values, some of them ahead of it.

Tests used:
Experiment in all cases: CellTiter Glo cell viability assay
Format in all cases: cell-based, human
Bladder 5637 = conditions: for pIC50: Homo sapiens
Summary of the method: (§1)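 Cells seeded at 1.7*10^3/well in quadruplicate; compounds at 18 two-fold dilutions from 5 μM (0.000038146-5 μM), or at 1, 2, 5, 10 and 20 μM. CellTiter Glo luminescence read on days 1, 3 and 5 after treatment. IC50 by nonlinear regression of luminescence versus log dose.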

Bladder RT-112 = conditions: for pIC50: Homo sapiens
Summary of the method: as §1

Breast MDA-MB-231 = conditions: for pIC50: Homo sapiens
Summary of the method: as §1

Colon HCT_116 = conditions: for pIC50: Homo sapiens
Summary of the method: as §1

[1] = system: Connective Tissue Sarcoma TE 381.T; conditions: for pIC50: Homo sapiens, TE 381.T, 72 h, 3 Days of treatment, 18 2-fold dilutions 5-0.00003 μM
Summary of the method: as §1

Leiomyosarcoma SK-LMS-1 = conditions: for pIC50: Homo sapiens, SK-LMS-1, 72 h, 3 Days of treatment, 18 2-fold dilutions 5-0.00003 μM
Summary of the method: as §1

Liposarcoma 94T778 = conditions: for pIC50: Homo sapiens, 72 h, 3 Days of treatment, 18 2-fold dilutions 5-0.00003 μM
Summary of the method: as §1

Liver JHH-6 = conditions: for pIC50: Homo sapiens, 72 h, 3 Days of treatment, 18 2-fold dilutions 5-0.00003 μM
Summary of the method: as §1

Liver SNU-475 = conditions: for pIC50: Homo sapiens, SNU-475, 72 h, 3 Days of treatment, 18 2-fold dilutions 5-0.00003 μM
Summary of the method: as §1

Lung BEAS-2B = conditions: for pIC50: Homo sapiens, BEAS-2B, 72 h, 3 Days of treatment, 18 2-fold dilutions 5-0.00003 μM
Summary of the method: as §1

Lung NCI-H1048 = conditions: for pIC50: Homo sapiens, NCI-H1048, 72 h, 3 Days of treatment, 18 2-fold dilutions 5-0.00003 μM
Summary of the method: as §1

Lung NCI-H596 = conditions: for pIC50: Homo sapiens, NCI-H596, 72 h, 3 Days of treatment, 18 2-fold dilutions 5-0.00003 μM
Summary of the method: as §1

[2] = system: Osteosarcomas HOS_CRL_1543; conditions: for pIC50: Homo sapiens, 72 h, 3 Days of treatment, 18 2-fold dilutions 5-0.00003 μM
Summary of the method: as §1

Osteosarcomas KHOS_312H = conditions: for pIC50: Homo sapiens, 72 h, 3 Days of treatment, 18 2-fold dilutions 5-0.00003 μM
Summary of the method: as §1

Osteosarcomas KHOS_N/P = conditions: for pIC50: Homo sapiens, KHOS/NP, 72 h, 3 Days of treatment, 18 2-fold dilutions 5-0.00003 μM
Summary of the method: as §1

Osteosarcomas MG3 = conditions: for pIC50: Homo sapiens, 72 h, 3 Days of treatment, 18 2-fold dilutions 5-0.00003 μM
Summary of the method: as §1

Osteosarcomas SJSA_1 = conditions: for pIC50: Homo sapiens, SJSA-1, 72 h, 3 Days of treatment, 18 2-fold dilutions 5-0.00003 μM
Summary of the method: as §1

Osteosarcomas T1-73 = conditions: for pIC50: Homo sapiens, 72 h, 3 Days of treatment, 18 2-fold dilutions 5-0.00003 μM
Summary of the method: as §1

Osteosarcomas U2OS = conditions: for pIC50: Homo sapiens, U2OS, 72 h, 3 Days of treatment, 18 2-fold dilutions 5-0.00003 μM
Summary of the method: as §1

Pancreatic CFPAC = conditions: for pIC50: Homo sapiens, 72 h, 3 Days of treatment, 18 2-fold dilutions 5-0.00003 μM
Summary of the method: as §1

Rhabomyosarcoma Hs 729 = conditions: for pIC50: Homo sapiens, 72 h, 3 Days of treatment, 18 2-fold dilutions 5-0.00003 μM
Summary of the method: as §1

Tongue SCC-15 = conditions: for pIC50: Homo sapiens, SCC-15, 72 h, 3 Days of treatment, 18 2-fold dilutions 5-0.00003 μM
Summary of the method: as §1

Tongue SCC-25 = conditions: for pIC50: Homo sapiens, SCC-25, 72 h, 3 Days of treatment, 18 2-fold dilutions 5-0.00003 μM
Summary of the method: as §1

[3] = 72 h, 3 Days of treatment, 18 2-fold dilutions 5-0.00003 μM, read-out: Average IC50
[4] = 120 h, Day 5 upon drug treatment, 10 dosages 0.0001-20 μM (Compound 8: 18 dosages 0.000038146 to 5 μM), read-out: IC50
[5] = RT-112, 72 h, 3 Days of treatment, 18 2-fold dilutions 5-0.00003 μM, read-out: Average IC50
[6] = RT-112, 72 h, Table 4: 3 Days of treatment, 18 2-fold dilutions 5-0.00003 μM, Average (1, 8) or single Exp A-D, read-out: IC50
[7] = RT-112, 120 h, Day 5 upon drug treatment, 10 dosages 0.0001-20 μM (Compound 8: 18 dosages 0.000038146 to 5 μM), read-out: IC50
[8] = MDA-MB-231, 72 h, 3 Days of treatment, 18 2-fold dilutions 5-0.00003 μM, read-out: Average IC50
[9] = MDA-MB-231, 120 h, Day 5 upon drug treatment, 10 dosages 0.0001-20 μM (Compound 8: 18 dosages 0.000038146 to 5 μM), read-out: IC50
[10] = HCT-116, 72 h, 3 Days of treatment, 18 2-fold dilutions 5-0.00003 μM, read-out: Average IC50
[11] = HCT-116, 120 h, Day 5 upon drug treatment, 10 dosages 0.0001-20 μM (Compound 8: 18 dosages 0.000038146 to 5 μM), read-out: IC50
[12] = IC50 of 1 [KYN-001] vs 8 [KYN-119], 3 Days

pIC50 (Breast MDA-MB-231; [8]): 7.49
pIC50 (Breast MDA-MB-231; MDA-MB-231, 72 h, Day 3 upon drug treatment, 10 dosages 0.0001-20 μM, read-out: IC50): 7.53
pIC50 (Breast MDA-MB-231; [9]): 7.24
pIC50 (Colon HCT_116; [10]): 6.38
pIC50 (Colon HCT_116; [11]): 6.78
pIC50 [1]: 7.45
pIC50 (Leiomyosarcoma SK-LMS-1): 7.18
pIC50 (Liposarcoma 94T778): 7.07
pIC50 (Liver SNU-475): 6.62
pIC50 (Lung NCI-H1048): 7.04
pIC50 (Lung NCI-H596): 6.52
pIC50 (Osteosarcomas SJSA_1): 5.64
pIC50 (Osteosarcomas U2OS): 6.49
pIC50 (Rhabomyosarcoma Hs 729): 6.42
SMILES: COc1cc(/C=C/c2cc(O)cc(OC)c2CC=C(C)C)ccc1O [Compound 1, (E)-3-(4-hydroxy-3-methoxystyryl)-5-methoxy-4-(3-methylbut-2-en-1-yl)phenol]
pIC50 (Bladder 5637; [3]): 7.46
pIC50 (Bladder 5637; [4]): 7.51
pIC50 (Bladder RT-112; [5]): 7.28
pIC50 (Bladder RT-112; RT-112, 72 h, Day 3 upon drug treatment, 10 dosages 0.0001-20 μM, read-out: IC50): 6.98
pIC50 (Bladder RT-112; [6]): 7.57
pIC50 (Bladder RT-112; [7]): 7.54
pIC50 (Liver JHH-6): 6.76
pIC50 (Lung BEAS-2B): 7.12
pIC50 [2]: 6.45
pIC50 (Osteosarcomas KHOS_312H): 6.45
pIC50 (Osteosarcomas KHOS_N/P): 7.16
pIC50 (Osteosarcomas MG3): 7.44
pIC50 (Osteosarcomas T1-73): 6.09
pIC50 (Pancreatic CFPAC): 6.31
pIC50 (Tongue SCC-15): 7.77
pIC50 (Tongue SCC-25): 6.13

pIC50 (Breast MDA-MB-231; [8]): 8.07
pIC50 (Breast MDA-MB-231; [9]): ~11.60
Fold IC50 (Breast MDA-MB-231; [12]): 3.8
pIC50 (Colon HCT_116; [10]): 7.45
pIC50 (Colon HCT_116; [11]): 7.55
Fold IC50 (Colon HCT_116; [12]): 12
pIC50 [1]: 8.12
Fold IC50 [1, 12]: 4.8
pIC50 (Leiomyosarcoma SK-LMS-1): 7.76
Fold IC50 (Leiomyosarcoma SK-LMS-1; [12]): 3.8
pIC50 (Liposarcoma 94T778): 7.59
Fold IC50 (Liposarcoma 94T778; [12]): 3.3
pIC50 (Liver SNU-475): 7.49
Fold IC50 (Liver SNU-475; [12]): 7.4
pIC50 (Lung NCI-H1048): 7.84
Fold IC50 (Lung NCI-H1048; [12]): 6.3
pIC50 (Lung NCI-H596): 6.94
Fold IC50 (Lung NCI-H596; [12]): 2.6
pIC50 (Osteosarcomas SJSA_1): 5.02
Fold IC50 (Osteosarcomas SJSA_1; [12]): 0.2
pIC50 (Osteosarcomas U2OS): 7.43
Fold IC50 (Osteosarcomas U2OS; [12]): 8.8
pIC50 (Rhabomyosarcoma Hs 729): 7.19
Fold IC50 (Rhabomyosarcoma Hs 729; [12]): 5.9
SMILES: CCOc1cc(O)cc(/C=C/c2ccc(O)c(OC)c2)c1CC=C(C)C [Compound 8, (E)-3-Ethoxy-5-(4-hydroxy-3-methoxystyryl)-4-(3-methylbut-2-en-1-yl)phenol]
pIC50 (Bladder 5637; [3]): 8.41
pIC50 (Bladder 5637; [4]): ~8.03
Fold IC50 (Bladder 5637; [12]): 8.9
pIC50 (Bladder RT-112; [5]): 8.44
pIC50 (Bladder RT-112; [6]): 8.39
pIC50 (Bladder RT-112; [7]): ~8.25
Fold IC50 (Bladder RT-112; [12]): 15
pIC50 (Liver JHH-6): 7.44
Fold IC50 (Liver JHH-6; [12]): 4.7
pIC50 (Lung BEAS-2B): 7.82
Fold IC50 (Lung BEAS-2B; [12]): 5.1
pIC50 [2]: 7.49
Fold IC50 [2, 12]: 11
pIC50 (Osteosarcomas KHOS_312H): 7.44
Fold IC50 (Osteosarcomas KHOS_312H; [12]): 9.7
pIC50 (Osteosarcomas KHOS_N/P): 7.98
Fold IC50 (Osteosarcomas KHOS_N/P; [12]): 6.6
pIC50 (Osteosarcomas MG3): 8.16
Fold IC50 (Osteosarcomas MG3; [12]): 5.2
pIC50 (Osteosarcomas T1-73): 8.41
Fold IC50 (Osteosarcomas T1-73; [12]): 205
pIC50 (Pancreatic CFPAC): 7.08
Fold IC50 (Pancreatic CFPAC; [12]): 6.0
pIC50 (Tongue SCC-15): 7.83
Fold IC50 (Tongue SCC-15; [12]): 1.1
pIC50 (Tongue SCC-25): 6.56
Fold IC50 (Tongue SCC-25; [12]): 2.7
